According to ChEMBL document CHEMBL1201862, “PubChem BioAssay data set” (2004):
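Protocol summary: plate cells (96-well), add compound at 5 concentrations, incubate 48 h, interpolate endpoints linearly. GI50 marks 50% less growth.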 Calls of active or inactive are those of the source. Cut-off read from the data, not from the text of the source: active = GI50 up to about 1.1 µM and inactive = higher.

Columns and labels:
Assay in all cases: NCI-60 cell line screen, 48 h
COLO 205 = test system: COLO 205
RXF 393 = test system: RXF 393
SNB-75 = test system: SNB-75
SN12C = test system: SN12C
SR = test system: SR
HCT-116 = test system: HCT-116
UO-31 = test system: UO-31
HOP-92 = test system: HOP-92
IGROV-1 = test system: IGROV-1
K562 = test system: K562
HL-60 = test system: HL-60
SK-MEL-28 = test system: SK-MEL-28
HT-29 = test system: HT-29
OVCAR-5 = test system: OVCAR-5
UACC-62 = test system: UACC-62
SF-539 = test system: SF-539
CCRF-CEM = test system: CCRF-CEM
LOX IMVI = test system: LOX IMVI
NCI-H522 = test system: NCI-H522
SK-OV-3 = test system: SK-OV-3

Measured: GI50

NNc1nc2ccccc2s1
inactive: COLO 205 > 100 µM | RXF 393 > 100 µM | SNB-75 > 100 µM | SN12C > 100 µM | SR 53.2 µM | HCT-116 > 100 µM | UO-31 > 100 µM | HOP-92 > 100 µM | IGROV-1 > 100 µM | K562 > 100 µM | HL-60 > 100 µM | SK-MEL-28 > 100 µM | HT-29 > 100 µM | OVCAR-5 > 100 µM | UACC-62 > 100 µM | SF-539 > 100 µM | CCRF-CEM 35.1 µM | LOX IMVI > 100 µM | NCI-H522 > 100 µM

COc1cccc(NC(=O)CC(=O)NNCC(=O)Nc2nnc(-c3ccc(N(CCC#N)S(=O)(=O)c4ccccc4)cc3)s2)c1
inactive: SK-OV-3 30.5 µM | COLO 205 53 µM | RXF 393 56.4 µM | SN12C 89.7 µM | SR 28.8 µM | HCT-116 63.7 µM | UO-31 47.4 µM | HOP-92 49.2 µM | IGROV-1 96.4 µM | K562 37.6 µM | SK-MEL-28 55.7 µM | OVCAR-5 78.3 µM | UACC-62 30.7 µM | SF-539 > 100 µM | LOX IMVI 75.7 µM | NCI-H522 39 µM

COc1cc(C(C)O)c[n+](Cc2ccccc2)c1 (centres undefined)
inactive: SK-OV-3 > 100 µM | COLO 205 > 100 µM | RXF 393 > 100 µM | SNB-75 > 100 µM | SN12C > 40.5 µM | SR > 100 µM | HCT-116 > 100 µM | UO-31 > 100 µM | HOP-92 > 100 µM | IGROV-1 > 100 µM | K562 > 100 µM | HL-60 > 100 µM | SK-MEL-28 > 100 µM | HT-29 > 100 µM | OVCAR-5 > 100 µM | UACC-62 > 100 µM | SF-539 > 100 µM | CCRF-CEM > 100 µM | LOX IMVI > 100 µM | NCI-H522 > 100 µM

CN(C)C(=O)OC1C(=O)N(C)c2ccc(Cl)cc2C2(c3ccccc3)N1C2(Cl)Cl (centres undefined)
inactive: SK-OV-3 82.8 µM | COLO 205 > 100 µM | RXF 393 69.2 µM | SNB-75 69.3 µM | SN12C 59.3 µM | SR 49.7 µM | HCT-116 62.7 µM | UO-31 49.2 µM | HOP-92 18.7 µM | IGROV-1 > 100 µM | K562 56.6 µM | HL-60 29.4 µM | SK-MEL-28 > 100 µM | HT-29 > 100 µM | OVCAR-5 > 100 µM | UACC-62 64.7 µM | CCRF-CEM 75.2 µM | LOX IMVI > 100 µM | NCI-H522 46 µM
